Assays:
[1] = test system: complicated skin and skin structure infections (CSSSI); experiment: Phase 2 study in CSSSI, clinical outcome at test of cure; assay type: in vivo, human
Description: (§1) A randomized (1:1), controlled, evaluator-blinded Phase 2 study comparing 9-[(2,2-dimethyl-propyl amino)-methyl-minocycline (compound 1) and linezolid (Zyvox™) for the treatment of complicated skin and skin structure infections (CSSSI) was conducted. Patients with CSSSI who required initial intravenous (IV) therapy and met inclusion and exclusion criteria were enrolled at 11 centers in the US and were randomized to receive either compound 1 (100 mg Q24 h IV with 200 mg Q24 h oral step-down) or linezolid (600 mg Q12 h IV with 600 mg Q12 h oral step-down).
All subjects had four structured evaluations: at Enrollment (Baseline); at End of IV Treatment; at End of Treatment; and at 10 to 17 days after last dose of treatment (test of cure (TOC) evaluation). In addition, the blinded investigator saw each subject daily while they were on IV therapy and at least every 3 days while receiving oral treatment to determine whether to continue current treatment, switch from IV to oral therapy, or discontinue treatment.
At each of the four structured evaluations, the blinded evaluator assessed the subject, with particular attention to scoring the findings at the primary site of infection and obtaining cultures. Clinical and microbiologic outcomes were determined using these assessments. Primary evaluation criteria was safety and tolerability compared with linezolid. Secondary evaluation criteria was efficacy of compound 1 compared to linezolid, as well as pharmacokinetics of compound 1.
At each scheduled evaluation, the blinded evaluator examined the primary site of infection; for patients with multiple non-contiguous areas of infection, the blinded evaluator identified the most severely affected portion at Enrollment and designated that as the primary site of infection. The following information was recorded for each patient: maximal linear dimension of area of continuous involvement of infection; maximal linear dimension of ulceration, if present; semi-qualitative (scale of 0 to 3; none, mild, marked, severe) description of infection for the following features: erythema, edema/induration, fluctuance, necrotic tissue, purulence (including drainage), and tenderness/pain. In addition, at the Enrollment Evaluation, the following were also recorded the anatomical location of the primary site of infection; and the clinical diagnosis of the type of the infection.
Both the investigational drug, compound 1, and the comparator drug, Zyvox™ were administered intravenously and orally. Patients randomized to linezolid may have received aztreonam IV for suspected or documented gram-negative infection. Subjects were initially treated with study drug IV and then switched to oral therapy. The expected duration of IV treatment was up to 7 days; the expected total duration of treatment (IV and oral) was up to 14 days.
For IV administration, the HCl salt of compound 1 for injection was given as 100 mg in 100 ml sterile saline infused over 30 minutes q24 h. For oral administration, compound 1 100 mg capsules were taken fasting as 2 capsules with 8 oz. water q24 h. No food was to be taken for 30 to 60 minutes after dosing and no dairy products for 4 hours.
Linezolid (Zyvox™) 600 mg tablets and pre-mixed 600 mg IV infusion solution (300 ml volume) were obtained from commercial sources. Linezolid 600 mg IV was administered as a 30 minute infusion.
Efficacy analyses were performed on several populations of subjects. Subjects were analyzed for efficacy according to randomization, regardless of treatment administered.
The Intent-to-Treat (ITT) population includes all enrolled subjects who received at least one dose of study medication.
The modified Intent-to-Treat (mITT) population comprises all subjects in the ITT population who have an Infecting Pathogen isolated at prior to administration of the study compound. […]

GNR = experiment: Phase 2 CSSSI study, clinical outcome by organism: GNR; assay type: in vivo, gram-negative rods; conditions: ME population
Description: as §1
(§2) An infecting pathogen was defined as an isolate derived from the last positive culture taken from the site of infection under study prior to and including day 1.

MSSA = experiment: Phase 2 CSSSI study, clinical outcome by organism: MSSA; assay type: in vivo, Staphylococcus aureus; conditions: for Clinical outcome Failure (number) / Clinical outcome Success (number): ME population, MSSA; for clinical success rate against MSSA: as determined in the trials of the Exemplification
Description: as §1, §2

infecting pathogen = experiment: Phase 2 CSSSI study, microbiology outcome; assay type: in vivo, human; conditions: ME population; for Presumed Persistence (% of subjects) / Presumed Persistence (number of subjects): clinical failure; for Presumed Persistence (% of subjects) / Presumed Persistence (number of subjects) / Presumed Eradication (% of subjects) / Presumed Eradication (number of subjects): no pathogen at TOC; for Persistence (% of subjects) / Persistence (number of subjects) / Presumed Eradication (% of subjects) / Presumed Eradication (number of subjects): clinical success; for Persistence (% of subjects) / Persistence (number of subjects): enrollment pathogen isolated at TOC
Description: as §2
A persisting pathogen at the site of infection under study was defined as an isolate that was the same genus and species as an infecting pathogen; and was cultured at the Test-of-Cure evaluation from the site of infection under study.
A superinfecting pathogen at the site of infection under study is defined as a pathogen meeting all of the following criteria: represented a genus and species not isolated during the Enrollment evaluation, was cultured at any time from the day 3 of treatment to the test of cure evaluation, inclusive; was cultured from a patient who had at least one infecting pathogen; and was cultured from a patient who represents a “clinical failure.”
Microbiological response to treatment was determined for each infecting pathogen using the following classification: documented eradication, presumed eradication, documented persistence, presumed persistence, or unknown.
Microbiological response to treatment was determined for each subject using the following classification:
Microbiologic Success—all infecting pathogens isolated at baseline were eradicated or presumed eradicated at the test-of-cure evaluation and no superinfecting pathogen was isolated from the site of infection under study.
Microbiological Failure—persistence or presumed persistence of one or more infecting pathogens or isolation of a superinfecting pathogen from the site of infection under study.

Mixed GPC = experiment: Phase 2 CSSSI study, clinical outcome by organism: Mixed GPC; assay type: in vivo; conditions: ME population
Description: as §1, §2

B-Strep = experiment: Phase 2 CSSSI study, clinical outcome by organism: B-Strep; assay type: in vivo, B-streptococci; conditions: for Clinical outcome Failure (number) / Clinical outcome Success (number): ME population, B-Strep; for clinical success rate against B. streptococci: as determined in the trials of the Exemplification
Description: as §1, §2

[2] = clinically evaluable population
[3] = microbiologically evaluable population

## CN(C)c1cc(CNCC(C)(C)C)c(O)c2c1C[C@H]1C[C@H]3[C@H](N(C)C)C(O)=C(C(N)=O)C(=O)[C@@]3(O)C(O)=C1C2=O [Compound 1, 9-[(2,2-dimethyl-propylamino)-methyl]-minocycline]
[1]; ITT population
  Clinical Failure (% of subjects): (11.7%)
  Clinical Failure (number of subjects): 13
  Clinical Failure: Failure (% of subjects): (1.8%)
  Clinical Failure: Failure (number of subjects): 2
  Clinical Failure: Nonevaluable (% of subjects): (9.9%)
  Clinical Failure: Nonevaluable (number of subjects): 11
  Clinical Success (% of subjects): (88.3%)
  Clinical Success (number of subjects): 98
[1]; ITT population, listed as compound 1
  Clinical Success (% of subjects): 88.3%
[1]; [2]
  Clinical Failure (% of subjects): 2.0%
  Clinical Failure (number of subjects): 2
  Clinical Success (% of subjects): 98.0%
  Clinical Success (number of subjects): 98
[1]; clinically evaluable population, listed as compound 1
  Clinical Success (% of subjects): 98%
[1]; mITT population
  Clinical Failure (% of subjects): (10.7%)
  Clinical Failure (number of subjects): 9
  Clinical Failure: Failure (% of subjects): (2.4%)
  Clinical Failure: Failure (number of subjects): 2
  Clinical Failure: Nonevaluable (% of subjects): (8.3%)
  Clinical Failure: Nonevaluable (number of subjects): 7
  Clinical Success (% of subjects): (89.3%)
  Clinical Success (number of subjects): 75
[1]; [3]
  Clinical Failure (% of subjects): 2.6%
  Clinical Failure (number of subjects): 2
  Clinical Success (% of subjects): 97.4%
  Clinical Success (number of subjects): 75
GNR
  Clinical outcome Failure (number): 2
  Clinical outcome Success (number): 7
MSSA
  Clinical outcome Failure (number): 2
  Clinical outcome Success (number): 27
  clinical success rate against MSSA: 93%
Infecting pathogen
  Presumed Persistence (% of subjects): 2.7%
  Presumed Persistence (number of subjects): 2
  Persistence (% of subjects): 2.7%
  Persistence (number of subjects): 2
  Presumed Eradication (% of subjects): 94.7%
  Presumed Eradication (number of subjects): 71
Mixed GPC
  Clinical outcome Failure (number): 2
  Clinical outcome Success (number): 16
B-Strep
  Clinical outcome Failure (number): 0
  Clinical outcome Success (number): 6
  clinical success rate against B. streptococci: 100%

## CC(=O)NCC1CN(c2ccc(N3CCOCC3)c(F)c2)C(=O)O1 (stereo not shown) [Linezolid, N-[[3-(3-fluoro-4-morpholinophenyl)-2-oxooxazolidin-5-yl]methyl]acetamide, reference compound]
[1]; ITT population
  Clinical Failure (% of subjects): 24.1%
  Clinical Failure (number of subjects): 26
  Clinical Failure: Failure (% of subjects): 5.6%
  Clinical Failure: Failure (number of subjects): 6
  Clinical Failure: Nonevaluable (% of subjects): 18.5%
  Clinical Failure: Nonevaluable (number of subjects): 20
  Clinical Success (% of subjects): 75.9%
  Clinical Success (number of subjects): 82
[1]; [2]
  Clinical Failure (% of subjects): 6.8%
  Clinical Failure (number of subjects): 6
  Clinical Success (% of subjects): 93.2%
  Clinical Success (number of subjects): 82
[1]; mITT population
  Clinical Failure (% of subjects): 24.4%
  Clinical Failure (number of subjects): 19
  Clinical Failure: Failure (% of subjects): 5.1%
  Clinical Failure: Failure (number of subjects): 4
  Clinical Failure: Nonevaluable (% of subjects): 19.2%
  Clinical Failure: Nonevaluable (number of subjects): 15
  Clinical Success (% of subjects): 75.6%
  Clinical Success (number of subjects): 59
[1]; [3]
  Clinical Failure (% of subjects): 6.3%
  Clinical Failure (number of subjects): 4
  Clinical Success (% of subjects): 93.7%
  Clinical Success (number of subjects): 59
GNR
  Clinical outcome Failure (number): 0
  Clinical outcome Success (number): 7
MSSA
  Clinical outcome Failure (number): 2
  Clinical outcome Success (number): 21
  clinical success rate against MSSA: 91%
Infecting pathogen
  Presumed Persistence (% of subjects): 6.3%
  Presumed Persistence (number of subjects): 4
  Persistence (% of subjects): 1.6%
  Persistence (number of subjects): 1
  Presumed Eradication (% of subjects): 92.1%
  Presumed Eradication (number of subjects): 58
Mixed GPC
  Clinical outcome Failure (number): 2
  Clinical outcome Success (number): 9
B-Strep
  Clinical outcome Failure (number): 2
  Clinical outcome Success (number): 0
  clinical success rate against B. streptococci: 0%

Reference: patent US9724358B2, “Minocycline compounds and methods of use thereof” (Paratek Pharmaceuticals, Inc., priority 2008, dated 2017)
